{
  "source": "patent US12091653B2",
  "about": "“Strain of Glutamicibacter, originating from insects, capable of efficiently degrading bifenthrin” (Anhui Agricultural University, priority 2023, dated 2024)",
  "system": "E. grisescens larvae",
  "experiment": "Toxicity testing of 2,4-di-tert-butylphenol in artificial food fed to E. grisescens larvae",
  "type": "in vivo, Ectropis grisescens",
  "conditions": "100 mg/L in sterile artificial food, 48 hours",
  "procedure": "A stock solution of 2,4-di-tert-butylphenol (purchased from Beijing Solarbio Science & Technology Co., Ltd., HPLC≥99%) was prepared following the preparation method for bifenthrin stock solution. This stock solution was added to sterile artificial food at a final concentration of 100 mg/L. This food was used to feed 30 healthy 4-5 aged E. grisescens larvae. The control group was fed normal sterile artificial food.",
  "data": [
    {"smiles": "CC(C)(C)c1ccc(O)c(C(C)(C)C)c1", "note": "[2,4-di-tert-butylphenol]", "values": [
      {"measurement": "toxicity to E. grisescens larvae", "value": "little to no toxicity"},
      {"measurement": "survival rate of E. grisescens larvae", "setting": "control food 93.33%", "value": 94.45, "unit": "%"}
    ]}
  ]
}
